Data published in PubChem BioAssay (NCI).
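48-hour exposure; five concentrations; linearly interpolated endpoints. Here, GI50 denotes the concentration required for 50% inhibition of growth. TGI: total growth inhibition.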

What was measured:
Test in all cases: growth of human tumour cells (NCI), 48 h
[1] = tested on: NCI-H460 lung
[2] = tested on: HCT-116 colon
[3] = tested on: SW-620 colon
[4] = tested on: K-562 leukemia
[5] = tested on: LOX IMVI melanoma
[6] = tested on: SK-MEL-28 melanoma
[7] = tested on: COLO 205 colon
[8] = tested on: NCI-H226 lung
[9] = tested on: SF-295 CNS
[10] = tested on: SNB-19 CNS
[11] = tested on: SNB-78 CNS
[12] = tested on: SK-MEL-5 melanoma
[13] = tested on: DLD-1 colon

| SMILES | TGI [1] | TGI [2] | TGI [3] | TGI [4] | TGI [5] | TGI [6] | TGI [7] | TGI [8] | TGI [9] | TGI [10] | TGI [11] | TGI [12] | TGI [13] | GI50 [1] | GI50 [11] | GI50 [3] | GI50 [4] | GI50 [5] | GI50 [6] | GI50 [7] |
| --- | --- | --- | --- | --- | --- | --- | --- | --- | --- | --- | --- | --- | --- | --- | --- | --- | --- | --- | --- | --- |
| CCCc1c(-c2ccccc2)[nH]c2ccccc2c1=O | > 100 µM | 72.8 µM | > 100 µM | > 100 µM | 43.5 µM | > 100 µM | > 100 µM | > 100 µM | > 100 µM | > 100 µM | – | – | – | – | – | – | – | – | – | – |
| Nc1ccn(C2C=C(CO)C(O)C2O)c(=O)c1 (centres undefined) | > 625 µM | > 625 µM | > 625 µM | – | > 625 µM | – | > 625 µM | > 625 µM | > 625 µM | > 625 µM | > 625 µM | > 625 µM | > 62.5 µM | – | – | – | – | – | – | – |
| COc1nc(=O)n(COC(CO)CN2C(=O)c3ccccc3C2=O)cc1Cc1cccc(OCc2ccccc2)c1 (centres undefined) | – | > 100 µM | > 100 µM | 60.1 µM | 41.5 µM | 36.2 µM | 37.4 µM | 54.2 µM | 48.9 µM | > 100 µM | > 100 µM | 30.5 µM | > 100 µM | – | – | – | – | – | – | – |
| O=C1OC2(CC1C1(O)C3CC4CC(C3)CC1C4)C1CC3CC(C1)CC2C3 (centres undefined) | > 100 µM | > 100 µM | > 100 µM | > 100 µM | > 100 µM | > 100 µM | – | > 100 µM | 73.1 µM | – | > 100 µM | > 100 µM | > 100 µM | – | – | – | – | – | – | – |
| C=CC1(NC(=O)c2ccccc2)CCC(C(C)(C)C)CC1 (centres undefined) | > 92.3 µM | 55.1 µM | > 84.4 µM | > 100 µM | 39.3 µM | > 100 µM | 43.2 µM | > 71.6 µM | 74 µM | > 100 µM | > 100 µM | 43.9 µM | > 100 µM | – | – | – | – | – | – | – |
| CN(C)CCCN1c2ccccc2Sc2ccc3ccccc3c21 | 7.66 µM | 22.9 µM | 22.6 µM | 5.56 µM | 19.8 µM | 4.26 µM | 10 µM | 19 µM | 26.3 µM | 28.8 µM | – | 8.21 µM | – | – | – | – | – | – | – | – |
| N#C[C@H](OC1OC(COC2OC(CO)C(O)C(O)C2O)C(O)C(O)C1O)c1ccccc1 (some centres undefined) | > 250 µM | > 250 µM | > 250 µM | > 250 µM | > 250 µM | > 250 µM | > 250 µM | > 250 µM | > 250 µM | > 250 µM | > 250 µM | > 250 µM | > 250 µM | – | – | – | – | – | – | – |
| CCN(CC)c1ccc2cc(C(=O)Nc3ccc4[nH]c(C(=O)N5C[C@@H](CCl)c6c5cc(OC(=O)Nc5ccccc5)c5[nH]cc(C)c65)cc4c3)oc2c1 | – | 378 µM | > 1000 µM | > 1000 µM | – | > 1000 µM | > 1000 µM | – | – | 758 µM | > 1000 µM | > 1000 µM | – | 39.4 µM | 83.7 µM | 207 µM | 278 µM | 295 µM | 401 µM | > 1000 µM |
| O=C(CCl)NNC1=Nc2ccc(Cl)cc2SC1 | 20.4 µM | 3.2 µM | 4.22 µM | 5.34 µM | 2.48 µM | 3.92 µM | 3.47 µM | 6.16 µM | 28.4 µM | 26.4 µM | 4.51 µM | 6.54 µM | 3.6 µM | – | – | – | – | – | – | – |
